The values that follow come from US20230265151A1, “GIP/GLP1 CO-AGONIST COMPOUNDS” (priority 2020, published 2023).

Where two headings read alike, the source gives them in different places.

The target in assay [1] is T1, human Gcg receptor (hGcgR) (Homo sapiens, UniProt P47871).
T1 construct: expressed in transfected cells; crude membranes
Kind of assay: [125I]-Glucagon binding, SPA with membranes of HEK293 cells expressing hGcgR.

Assay [2] concerns the target T2, human GLP-1 receptor (hGLP-1R) (Homo sapiens, UniProt P43220).
T2 construct: expressed in transfected cells; crude membranes
Put plainly: [125I]-GLP-1 binding, SPA with membranes of HEK293 cells expressing hGLP-1R.

Where [3] appears, read: human GcgR, geometric mean (SEM, n), read-out: Binding Affinity Ki, nM (SEM, n) hGCGR.
The mark [4] stands for this setting: human GLP-1R, geometric mean (SEM, n), read-out: Binding Affinity Ki, nM (SEM, n) hGLP-1R.

By Ki is commonly meant a measure of affinity in units of concentration, obtained from inhibition or displacement.

T2 sequence (P43220 24-463): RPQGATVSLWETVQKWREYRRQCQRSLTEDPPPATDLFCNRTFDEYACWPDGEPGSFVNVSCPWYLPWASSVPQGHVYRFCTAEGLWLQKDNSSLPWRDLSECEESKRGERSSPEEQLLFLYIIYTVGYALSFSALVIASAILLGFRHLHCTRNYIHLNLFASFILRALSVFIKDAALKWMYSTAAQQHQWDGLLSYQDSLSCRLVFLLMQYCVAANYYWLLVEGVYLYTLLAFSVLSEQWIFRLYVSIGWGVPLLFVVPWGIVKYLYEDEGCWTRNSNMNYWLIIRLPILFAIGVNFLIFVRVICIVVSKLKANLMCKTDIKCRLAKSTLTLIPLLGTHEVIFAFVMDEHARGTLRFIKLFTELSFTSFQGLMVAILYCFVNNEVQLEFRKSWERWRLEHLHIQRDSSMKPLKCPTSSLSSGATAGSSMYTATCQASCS
T1 sequence (P47871 26-477): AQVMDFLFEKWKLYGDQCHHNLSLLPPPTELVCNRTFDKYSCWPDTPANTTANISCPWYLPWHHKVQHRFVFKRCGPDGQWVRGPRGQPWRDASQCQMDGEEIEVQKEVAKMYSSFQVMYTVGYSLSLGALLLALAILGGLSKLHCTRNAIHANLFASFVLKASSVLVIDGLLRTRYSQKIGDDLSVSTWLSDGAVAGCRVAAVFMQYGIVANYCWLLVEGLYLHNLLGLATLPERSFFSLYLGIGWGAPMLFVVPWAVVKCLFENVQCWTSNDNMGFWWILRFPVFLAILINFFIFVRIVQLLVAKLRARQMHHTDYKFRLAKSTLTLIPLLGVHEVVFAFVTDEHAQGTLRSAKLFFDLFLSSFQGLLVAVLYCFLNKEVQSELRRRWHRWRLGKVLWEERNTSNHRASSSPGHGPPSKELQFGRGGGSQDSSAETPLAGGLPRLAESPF

Regarding `CC[C@H](C)[C@H](NC(=O)[C@H](CC(C)C)NC(=O)[C@](C)(Cc1ccc(O)cc1)NC(=O)[C@@H](CCC(=O)O)NC(=O)[C@@H](NC(=O)[C@H](Cc1ccccc1)NC(=O)[C@H](CCC(=O)O)NC(=O)C(C)(C)NC(=O)[C@H](CCC(N)=O)NC(=O)[C@H](C)NC(=O)[C@H](CCCCNC(=O)COCCOCCNC(=O)COCCOCCNC(=O)CC[C@H](NC(=O)CCCCCCCCCCCCC(=O)O)C(=O)O)NC(=O)[C@H](CCCN)NC(=O)[C@H](CC(=O)O)NC(=O)[C@H](CC(C)C)NC(=O)[C@](C)(CC(C)C)NC(=O)[C@@H](NC(=O)[C@](C)(CO)NC(=O)[C@@H](NC(=O)[C@H](CC(=O)O)NC(=O)[C@H](CO)NC(=O)[C@@H](NC(=O)[C@](C)(Cc1ccccc1F)NC(=O)[C@@H](NC(=O)CNC(=O)[C@H](CCC(=O)O)NC(=O)C(C)(C)NC(=O)[C@@H](N)Cc1ccc(O)cc1)[C@@H](C)O)[C@@H](C)O)C(C)C)[C@@H](C)CC)[C@@H](C)CC)C(=O)N[C@@H](CCC(=O)O)C(=O)NCC(=O)NCC(=O)N[C@@H](CCCCNC(=O)COCCOCCNC(=O)COCCOCCNC(=O)CC[C@H](NC(=O)CCCCCCCCCCCCC(=O)O)C(=O)O)C(=O)N[C@@H](CO)C(=O)N[C@@H](CO)C(=O)NCC(=O)N[C@@H](C)C(=O)N1CCC[C@H]1C(=O)N1CCC[C@H]1C(=O)N1CCC[C@H]1C(=O)N[C@@H](CO)C(N)=O` [Example 212], the results for the Ki in assay [1] (setting [3]) and in assay [2] (setting [4]) were above 955 nM and 1.17 nM, respectively.

For the compound `CC[C@H](C)[C@H](NC(=O)[C@H](CC(C)C)NC(=O)[C@](C)(Cc1ccc(O)cc1)NC(=O)[C@@H](CCC(=O)O)NC(=O)[C@@H](NC(=O)[C@H](Cc1ccccc1)NC(=O)[C@H](CCC(=O)O)NC(=O)C(C)(C)NC(=O)[C@H](CCC(N)=O)NC(=O)[C@H](C)NC(=O)[C@H](CCCCNC(=O)COCCOCCNC(=O)COCCOCCNC(=O)CC[C@H](NC(=O)CCCCCCCCCCCCC(=O)O)C(=O)O)NC(=O)[C@H](CCCN)NC(=O)[C@H](CC(=O)O)NC(=O)[C@H](CC(C)C)NC(=O)[C@](C)(CC(C)C)NC(=O)[C@@H](NC(=O)C(C)(C)NC(=O)[C@@H](NC(=O)[C@H](CC(=O)O)NC(=O)[C@H](CO)NC(=O)[C@@H](NC(=O)[C@](C)(Cc1ccccc1F)NC(=O)[C@@H](NC(=O)CNC(=O)[C@H](CCC(=O)O)NC(=O)C(C)(C)NC(=O)[C@@H](N)Cc1ccc(O)cc1)[C@@H](C)O)[C@@H](C)O)C(C)C)[C@@H](C)CC)[C@@H](C)CC)C(=O)N[C@@H](CCC(=O)O)C(=O)NCC(=O)NCC(=O)N[C@@H](CCCCNC(=O)COCCOCCNC(=O)COCCOCCNC(=O)CC[C@H](NC(=O)CCCCCCCCCCCCC(=O)O)C(=O)O)C(=O)N[C@@H](CO)C(=O)N[C@@H](CO)C(=O)NCC(=O)N[C@@H](C)C(=O)N1CCC[C@H]1C(=O)N1CCC[C@H]1C(=O)N1CCC[C@H]1C(=O)N[C@@H](CO)C(N)=O` [Example 91], the Ki was above 955 nM in assay [1] (setting [3]) and 1.26 nM in assay [2] (setting [4]).

In the case of `CC[C@H](C)[C@H](NC(=O)[C@H](CC(C)C)NC(=O)[C@](C)(Cc1ccc(O)cc1)NC(=O)[C@H](CCCCNC(=O)CC[C@H](NC(=O)COCCOCCNC(=O)COCCOCCNC(=O)CC[C@H](NC(=O)CCCCCCCCCOc1ccc(C(=O)O)cc1)C(=O)O)C(=O)O)NC(=O)[C@@H](NC(=O)[C@H](Cc1ccccc1)NC(=O)[C@H](CCCN)NC(=O)C(C)(C)NC(=O)[C@H](CCC(N)=O)NC(=O)[C@H](C)NC(=O)[C@H](CCC(N)=O)NC(=O)[C@H](CCCN)NC(=O)[C@H](CC(=O)O)NC(=O)[C@H](CC(C)C)NC(=O)[C@](C)(CC(C)C)NC(=O)[C@@H](NC(=O)C(C)(C)NC(=O)[C@H](Cc1ccncc1)NC(=O)[C@H](CC(=O)O)NC(=O)[C@H](CO)NC(=O)[C@@H](NC(=O)[C@](C)(Cc1ccccc1F)NC(=O)[C@@H](NC(=O)CNC(=O)[C@H](CCC(=O)O)NC(=O)C(C)(C)NC(=O)[C@@H](N)Cc1ccc(O)cc1)[C@@H](C)O)[C@@H](C)O)[C@@H](C)CC)[C@@H](C)CC)C(=O)N[C@@H](CCCCNC(=O)CC[C@H](NC(=O)COCCOCCNC(=O)COCCOCCNC(=O)CC[C@H](NC(=O)CCCCCCCCCOc1ccc(C(=O)O)cc1)C(=O)O)C(=O)O)C(=O)NCC(=O)NCC(=O)N1CCC[C@H]1C(=O)N[C@@H](CO)C(=O)N[C@@H](CO)C(=O)NCC(=O)N[C@@H](C)C(=O)N1CCC[C@H]1C(=O)N1CCC[C@H]1C(=O)N1CCC[C@H]1C(=O)N[C@@H](CO)C(N)=O` [Example 483], the Ki in assay [1] is 151 nM; in assay [2] it was 0.263 nM.
